Broadly, the Ki is the dissociation constant of the complex between target and ligand, obtained from inhibition or displacement.

Structures are written as SMILES. Numbered stars: 1 amine (or outer) side, 2 acyl side, 3 side chain; on linkers, the order of the positions; unused ones are H or OH. Square brackets hold non-standard residues; d marks the D form. Peptide text beside a SMILES is read from it. Phe(4-NO2) = N[C@@H](Cc1ccc([N+](=O)[O-])cc1)C(=O)O; X1 = O=C([C@@H](N[*:1])C(O)c1ccccc1)[*:2]; hCha = N[C@@H](CCC1CCCCC1)C(=O)O; Cha = N[C@@H](CC1CCCCC1)C(=O)O; dNMeA = CN[C@H](C)C(=O)O

These results are taken from patent US5223485A, “Anaphylatoxin-receptor ligands” (Abbott Laboratories, priority 1991, dated 1993).

The target of this test is T1, C5a Receptor (Homo sapiens, UniProt P21730).
T1 construct: 2.5-25 μg/mL of purified PMNL membrane fragments; from tissue; host or cells: polymorphonuclear leukocyte (PMNL) membrane fragments
T1 sequence (P21730 1-350): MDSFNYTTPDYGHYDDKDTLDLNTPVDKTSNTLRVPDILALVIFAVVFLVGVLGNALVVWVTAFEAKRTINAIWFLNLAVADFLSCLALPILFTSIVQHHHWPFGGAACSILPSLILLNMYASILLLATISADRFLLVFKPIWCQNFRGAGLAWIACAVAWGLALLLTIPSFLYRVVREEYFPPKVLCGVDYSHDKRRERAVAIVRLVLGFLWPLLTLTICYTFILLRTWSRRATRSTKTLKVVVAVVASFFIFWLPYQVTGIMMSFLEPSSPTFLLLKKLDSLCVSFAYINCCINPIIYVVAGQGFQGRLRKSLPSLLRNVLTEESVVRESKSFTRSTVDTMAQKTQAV
Description: Anaphylatoxin receptor binding Ki determination: inhibition of 125I-C5a binding to PMNL membrane fragments. To be noted: 0.03-1 nM 125I-C5a, 2.5-25 μg/mL purified PMNL membrane fragments, filtration; read-out: In vitro C5a Receptor Binding Potency Ki. The procedure: Specific inhibition of C5a binding activity of representative compounds of the present invention was measured using 0.03-1 nM ^125 I-C5a with 2.5-25 μg/mL of purified PMNL membrane fragments (Borregaard, N.; Heiple, J. M.; Simons, E. R.; and Clark, R. A. J. Cell. Biol. 1983, 97, 52-61.). Free and membrane-bound ligand were separated by filtration.

As for `CC(C)C[C@H](NC(=O)[C@H](CC1CCCCC1)NC(=O)[C@H](CC1CCCCC1)NC(=O)[C@H](C)NC(=O)[C@H](CCCCN)NC(=O)[C@@H](N)Cc1ccccc1)C(=O)N[C@H](C)C(=O)N[C@@H](CCCNC(=N)N)C(=O)O` [Example 2, H-Phenylalanyl-Lysyl-Alanyl-{(2S)-2-Amino-3-cyclohexylpropanoyl}-{(2S)-2-Amino-3-cyclohexylpropanoyl}-Leucyl-DAlanyl-Arginyl-OH] (H-FKA[Cha][Cha]L[dA]R-OH), the inhibition constant (Ki) is 98 nM.

As for `CC(=O)N[C@@H](Cc1c[nH]cn1)C(=O)N[C@@H](CCCCN)C(=O)N[C@@H](CC(=O)O)C(=O)N[C@@H](CC1CCCCC1)C(=O)N[C@@H](Cc1c[nH]cn1)C(=O)N[C@@H](CC(C)C)C(=O)N[C@H](C)C(=O)N[C@@H](CCCNC(=N)N)C(=O)O` [Example 23, Ac-Histidyl-Lysyl-Aspartyl-{(2S)-2-Amino-3-cyclohexylpropanoyl}-Histidyl-Leucyl-DAlanyl-Arginyl-OH] (Ac-HKD[Cha]HL[dA]R-OH), the Ki came out at 2400 nM.

Turning to `CC(=O)N[C@@H](Cc1ccc([N+](=O)[O-])cc1)C(=O)N[C@@H](CCCCN)C(=O)N[C@@H](CC(=O)O)C(=O)N[C@@H](CC1CCCCC1)C(=O)N[C@@H](CC1CCCCC1)C(=O)N[C@@H](CC(C)C)C(=O)N[C@H](C)C(=O)N[C@@H](CCCNC(=N)N)C(=O)O` [Example 31, Ac-(4-NO2)Phenylalanyl-Lysyl-Aspartyl-{(2S)-2-Amino-3-cyclohexylpropanoyl}-{(2S)-2-Amino-3-cyclohexylpropanoyl}-Leucyl-DAlanyl-Arginyl-OH] (Ac-[Phe(4-NO2)]KD[Cha][Cha]L[dA]R-OH), the Ki is 90 nM.

Consider `CC(C)C[C@H](NC(=O)[C@H](Cc1ccccc1)NC(=O)[C@H](Cc1ccccc1)NC(=O)[C@H](CC(N)=O)NC(=O)[C@H](CCCCN)NC(=O)[C@@H](N)Cc1ccccc1)C(=O)N[C@H](C)C(=O)N[C@@H](CCCNC(=N)N)C(=O)O` [Example 91, H-Phenylalanyl-Lysyl-Asparaginyl-Phenylalanyl-Phenylalanyl-Leucyl-DAlanyl-Arginyl-OH] (H-FKNFFL[dA]R-OH), for which the Ki was found to be 485 nM.

As to `CC(C)C[C@H](NC(=O)[C@H](C)NC(=O)[C@H](CCC1CCCCC1)NC(=O)[C@H](C)NC(=O)[C@H](CCCCN)NC(=O)[C@@H](N)Cc1ccccc1)C(=O)N[C@H](C)C(=O)N[C@@H](CCCNC(=N)N)C(=O)O` [Example 106, H-Phenylalanyl-Lysyl-Alanyl-{(2S)-2-Amino-4-cyclohexylbutanoyl}-Alanyl-Leucyl-DAlanyl-Arginyl-OH] (H-FKA[hCha]AL[dA]R-OH), the Ki came out at 42 nM.

Take `CC[C@H](C)[C@H](N)C(=O)N[C@@H](CO)C(=O)N[C@@H](Cc1ccccc1)C(=O)N[C@@H](CCCCN)C(=O)N[C@@H](CC(=O)O)C(=O)N[C@@H](CC1CCCCC1)C(=O)N[C@@H](CC1CCCCC1)C(=O)N[C@@H](CC(C)C)C(=O)N[C@H](C)C(=O)N[C@@H](CCCNC(=N)N)C(=O)O` [Example 111, H-Isoleucyl-Seryl-Phenylalanyl-Lysyl-Aspartyl-{(2S)-2-Amino-3-cyclohexylpropanoyl}-{(2S)-2-Amino-3-cyclohexylpropanoyl}-Leucyl-DAlanyl-Arginyl-OH] (H-ISFKD[Cha][Cha]L[dA]R-OH): the Ki amounted to 650 nM.

In the case of `CC(C)C[C@H](NC(=O)[C@H](C)NC(=O)[C@@H](NC(=O)[C@H](C)NC(=O)[C@H](CCCCN)NC(=O)[C@@H](N)Cc1ccccc1)C(O)c1ccccc1)C(=O)N[C@H](C)C(=O)N[C@@H](CCCNC(=N)N)C(=O)O` (stereo partly drawn) [Example 117, H-Phenylalanyl-Lysyl-Alanyl-Phenylseryl-Alanyl-Leucyl-DAlanyl-Arginyl-OH] (H-FKA[X1]AL[dA]R-OH), the Ki is 550 nM.

With `C[C@H](NC(=O)[C@H](CCCCN)NC(=O)[C@@H](N)Cc1ccccc1)C(=O)N[C@@H](CC1CCCCC1)C(=O)N[C@@H](CC1CCCCC1)C(=O)N[C@H](C(=O)N[C@H](C)C(=O)N[C@@H](CCCNC(=N)N)C(=O)O)[C@@H](C)O` [Example 131, H-Phenylalanyl-Lysyl-Alanyl-{(2S)-2-Amino-3-cyclohexylpropanoyl}-{(2S)-2-Amino-3-cyclohexylpropanoyl}-Threonyl-DAlanyl-Arginyl-OH] (H-FKA[Cha][Cha]T[dA]R-OH), the Ki is 170 nM.

Consider `CCCC(C(=O)N[C@H](C)C(=O)N[C@@H](CCCNC(=N)N)C(=O)O)N1CCCC[C@H](NC(=O)[C@H](CC2CCCCC2)NC(=O)[C@H](Cc2c[nH]cn2)NC(=O)[C@H](CCCCN)NC(=O)[C@@H](N)Cc2ccccc2)C1=O` (stereo partly drawn) [Example 150, H-Phenylalanyl-Lysyl-Histidyl-{(2S)-2-Amino-3-cyclohexylpropanoyl}-{(2'R/S,3S)-3-Amino-2-oxo-1-azepine-2'-pentanoyl}-DAlanyl-Arginyl-OH], for which the Ki stood at 110 nM.

With `CC(C)C[C@H](NC(=O)CNC(=O)[C@H](CC1CCCCC1)NC(=O)[C@H](C)NC(=O)[C@H](CCCCN)NC(=O)[C@@H](N)Cc1ccccc1)C(=O)N[C@H](C)C(=O)N[C@@H](CCCNC(=N)N)C(=O)O` [Example 165, H-Phenylalanyl-Lysyl-Alanyl-{(2S)-2-Amino-3-cyclohexylpropanoyl}-Glycyl-Leucyl-DAlanyl-Arginyl-OH] (H-FKA[Cha]GL[dA]R-OH), the Ki was determined as 42 nM.

Take `CC(C)C[C@H](NC(=O)[C@H](CC1CCCCC1)NC(=O)[C@@H](NC(=O)[C@H](C)NC(=O)[C@H](CCCCN)NC(=O)[C@@H](N)Cc1ccccc1)[C@@H](C)O)C(=O)N[C@H](C)C(=O)N[C@@H](CCCNC(=N)N)C(=O)O` [Example 182, H-Phenylalanyl-Lysysl-Alanyl-Threonyl-{(2S)-2-Amino-3-cyclohexylpropanoyl}-Leucyl-DAlanyl-Arginyl-OH] (H-FKAT[Cha]L[dA]R-OH): the Ki came out at 300 nM.

Turning to `CC(C)C[C@H](NC(=O)[C@H](CC1CCCCC1)NC(=O)[C@H](CC1CCCCC1)NC(=O)[C@H](C)NC(=O)[C@H](CCCCN)NC(=O)[C@@H](N)Cc1ccccc1)C(=O)N[C@@H](C)C(=O)N[C@@H](CCCNC(=N)N)C(=O)O` [Example 188, H-Phenylalanyl-Lysyl-Alanyl-{(2S)-2-Amino-3-cyclohexylpropanoyl}-{(2S)-2-Amino-3-cyclohexylpropanoyl}-Leucyl-Alanyl-Arginyl-OH] (H-FKA[Cha][Cha]LAR-OH), the Ki is 210 nM.

For the compound `C[C@H](NC(=O)[C@H](CCCCN)NC(=O)[C@@H](N)Cc1ccccc1)C(=O)N[C@@H](CC1CCCCC1)C(=O)N[C@@H](CC1CCCCC1)C(=O)N[C@H](C)C(=O)N[C@H](C)C(=O)N[C@@H](CCCNC(=N)N)C(=O)O` [Example 202, H-Phenylalanyl-Lysyl-Alanyl-{(2S)-2-Amino-3-cyclohexylpropanoyl}-{(2S)-2-Amino-3-cyclohexylpropanoyl}-DAlanyl-DAlanyl-Arginyl-OH] (H-FKA[Cha][Cha][dA][dA]R-OH), the inhibition constant Ki came out at 870 nM.

As to `CC(C)C[C@H](NC(=O)[C@H](CC1CCCCC1)NC(=O)[C@H](CC1CCCCC1)NC(=O)[C@H](C)NC(=O)[C@H](CCCCN)NC(=O)[C@@H](N)Cc1ccccc1)C(=O)N[C@H](C)C(=O)NCC(=O)N[C@@H](CCCNC(=N)N)C(=O)O` [Example 213, H-Phenylalanyl-Lysyl-Alanyl-{(2S)-2-Amino-3-cyclohexylpropanoyl}-{(2S)-2-Amino-3-cyclohexylpropanoyl)-Leucyl-DAlanyl-Glycyl-Arginyl-OH] (H-FKA[Cha][Cha]L[dA]GR-OH), the Ki came out at 330 nM.

On to `CC(C)C[C@H](NC(=O)[C@@H](Cc1ccccc1)NC(=O)[C@H](CC1CCCCC1)NC(=O)[C@H](C)NC(=O)[C@H](CCCCN)NC(=O)[C@@H](N)Cc1ccccc1)C(=O)N[C@H](C)C(=O)N[C@@H](CCCNC(=N)N)C(=O)O` [Example 220, H-Phenylalanyl-Lysyl-Alanyl-{(2S)-2-Amino-3-cyclohexylpropanoyl}-DPhenylalanyl-Leucyl-DAlanyl-Arginyl-OH] (H-FKA[Cha][dF]L[dA]R-OH), for which the Ki stood at 220 nM.

Regarding `CC(C)C[C@H](NC(=O)[C@H](CC1CCCCC1)NC(=O)[C@H](CC1CCCCC1)NC(=O)[C@H](C)NC(=O)[C@H](CCCCN)NC(=O)[C@@H](N)Cc1ccccc1)C(=O)N(C)[C@H](C)C(=O)N[C@@H](CCCNC(=N)N)C(=O)O` [Example 229, H-Phenylalanyl-Lysyl-Alanyl-{(2S)-2-Amino-3-cyclohexylpropanoyl}-{(2S)-2-Amino-3-cyclohexylpropanoyl}-Leucyl-(N-Methyl)DAlanyl-Arginyl-OH] (H-FKA[Cha][Cha]L[dNMeA]R-OH), the Ki worked out at 33 nM.

On to `CC(C)C[C@H](NC(=O)[C@H](CC1CCCCC1)NC(=O)[C@H](Cc1c[nH]c2ccccc12)NC(=O)[C@H](C)NC(=O)[C@H](CCCCN)NC(=O)[C@@H](N)Cc1ccccc1)C(=O)N[C@H](C)C(=O)N[C@@H](CCCNC(=N)N)C(=O)O` [Example 245, H-Phenylalanyl-Lysyl-Alanyl-Tryptophyl-{(2S)-2-Amino-3-cyclohexylpropanoyl}-Leucyl-DAlanyl-Arginyl-OH] (H-FKAW[Cha]L[dA]R-OH), for which the Ki came to 52 nM.

Consider `CC(C)C[C@H](NC(=O)[C@H](CC1CCCCC1)NC(=O)[C@@H](C)NC(=O)[C@H](C)NC(=O)[C@H](CCCCN)NC(=O)[C@@H](N)Cc1ccccc1)C(=O)N[C@H](C)C(=O)N[C@@H](CCCNC(=N)N)C(=O)O` [Example 247, H-Phenylalanyl-Lysyl-Alanyl-DAlanyl-{(2S)-2-Amino-3-cyclohexylpropanoyl}-Leucyl-DAlanyl-Arginyl-OH] (H-FKA[dA][Cha]L[dA]R-OH), for which the Ki was determined as 330 nM.
